Experiments:
Phytophthora infestans = type: in vivo; conditions: 200 ppm; tomato leaf disks, preventative; inoculated 1 day after application; assessed 5-7 days after application
Plasmopara viticola = type: in vivo; conditions: 200 ppm; grape vine leaf disks, preventative; inoculated 1 day after application; assessed 6-8 days after application
Pythium ultimum = assay: Pythium ultimum/Liquid Culture (Seedling Damping Off); type: cell-based; conditions: Globisporangium ultimum, read-out: control of Pythium ultimum (inhibition of growth determined photometrically)

SMILES: COC(=O)Nc1ccc(-c2cnc3c(C)cc(C(=O)N(C)c4ccc(F)cc4)nn23)cn1 [Compound 3, methyl N-[5-[6-[(4-fluorophenyl)-methyl-carbamoyl]-8-methyl-imidazo[1,2-b]pyridazin-3-yl]-2-pyridyl]carbamate]
- control of Phytophthora infestans (percent disease control compared to untreated) (Phytophthora infestans): at least 80%
- control of Plasmopara viticola (percent disease control compared to untreated) (Plasmopara viticola): at least 80%

SMILES: COC(=O)Nc1ccc(-c2cnc3c(C)cc(C(=O)N4CCCc5cc(F)ccc54)nn23)cn1 [Compound 2, methyl N-[5-[6-(6-fluoro-3,4-dihydro-2H-quinoline-1-carbonyl)-8-methyl-imidazo[1,2-b]pyridazin-3-yl]-2-pyridyl]carbamate]
- control of Phytophthora infestans (percent disease control compared to untreated) (Phytophthora infestans): at least 80%

SMILES: COC(=O)Nc1ccc(-c2cnc3c(C)cc(C(=O)N(C)c4ccc(F)c(OC)c4)nn23)cn1 [Compound 4, methyl N-[5-[6-[(4-fluoro-3-methoxy-phenyl)-methyl-carbamoyl]-8-methyl-imidazo[1,2-b]pyridazin-3-yl]-2-pyridyl]carbamate]
- control of Phytophthora infestans (percent disease control compared to untreated) (Phytophthora infestans): at least 80%
- control of Plasmopara viticola (percent disease control compared to untreated) (Plasmopara viticola): at least 80%
- inhibition at 20 ppm (Pythium ultimum): ≥ 80%

SMILES: COC(=O)Nc1ccc(-c2cnc3ccc(C(=O)N(C)c4ccc(F)c(OC)c4)nn23)cn1 [Compound 8, methyl N-[5-[6-[(4-fluoro-3-methoxy-phenyl)-methyl-carbamoyl]imidazo[1,2-b]pyridazin-3-yl]-2-pyridyl]carbamate]
- control of Phytophthora infestans (percent disease control compared to untreated) (Phytophthora infestans): at least 80%
- control of Plasmopara viticola (percent disease control compared to untreated) (Plasmopara viticola): at least 80%
- inhibition at 20 ppm (Pythium ultimum): ≥ 80%

SMILES: COC(=O)Nc1ccc(-c2cnc3c(C)cc(C(=O)N(C)c4ccc(F)c(C)c4)nn23)cn1 [Compound 1, methyl N-[5-[6-[(4-fluoro-3-methyl-phenyl)-methyl-carbamoyl]-8-methyl-imidazo[1,2-b]pyridazin-3-yl]-2-pyridyl]carbamate]
- control of Plasmopara viticola (percent disease control compared to untreated) (Plasmopara viticola): at least 80%
